Measured values reported in the supplement of paper PMC10627819.

Key:
S. pneumoniae D39V [1] = assay: Bliss interaction score (quartile over a dose matrix) (fitness difference); higher = more antagonism (negative = synergy)
Method in brief: (§1)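 Growth was read as OD595 when cultures entered stationary phase, and each value was divided by the plate's robust no-drug mean and capped at 1. This normalised ratio is the fitness value, and fitness for each single drug came from the combination data. The Bliss score subtracts the expected fitness, taken as the product, from the observed fitness and is given as quartiles across technical, biological and donor/recipient replicates.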

B. subtilis 168 [2] = assay: as above
Method in brief: as §1

S. aureus Newman = assay: as above
Method in brief: as §1

S. aureus DSM 20231 = assay: as above
Method in brief: as §1

S. pneumoniae D39V [3] = assay: fitness (endpoint OD595 vs no drug) (fraction); higher = more growth
Method in brief: (§2)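 Fitness expresses the optical density reached at the stationary-phase transition as a fraction of the robust mean of no-drug control wells. It is capped at 1. Measurements were OD595 every 30 min for 14 h at 37 °C after inoculation of 384-well plates at OD595 0.01 (30 µl, or 55 µl for S. pneumoniae), minus the first reading.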

B. subtilis 168 [4] = assay: as above
Method in brief: as §2
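Wherever Bliss interaction score (quartile over a dose matrix) is given: first quartile when negative (synergy) and third quartile when positive (antagonism).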
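Wherever fitness (endpoint OD595 vs no drug) is given: OD595 on entry to stationary phase over no-drug wells; at most 1.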

C[C@H]1c2cccc(O)c2C(=O)C2=C(O)[C@]3(O)C(=O)C(C(N)=O)=C(O)[C@@H](N(C)C)[C@@H]3[C@@H](O)[C@@H]21 [Doxycycline] + CN(C)c1cc(NC(=O)CNC(C)(C)C)c(O)c2c1C[C@H]1C[C@H]3[C@H](N(C)C)C(O)=C(C(N)=O)C(=O)[C@@]3(O)C(O)=C1C2=O [Tigecycline]
Settings	Bliss interaction score
B. subtilis 168 [2]	0.0765
S. aureus DSM 20231	-0.104
S. aureus Newman	-0.0649
S. pneumoniae D39V [1]	0.0303

fitness, one replicate
Settings	partner 0.125 µg/mL	partner 0.25 µg/mL	partner 0.5 µg/mL	partner 0.65 µg/mL	partner 1.3 µg/mL	partner 2.6 µg/mL
B. subtilis 168 [4], first compound 0.02 µg/mL	0.99	0.873	0.962	–	–	–
B. subtilis 168 [4], first compound 0.04 µg/mL	0.994	0.849	0.895	–	–	–
B. subtilis 168 [4], first compound 0.08 µg/mL	0.761	0.611	0.697	–	–	–
S. pneumoniae D39V [3], first compound 0.003875 µg/mL	–	–	–	≥ 1	≥ 1	≥ 1
S. pneumoniae D39V [3], first compound 0.00775 µg/mL	–	–	–	1	0.963	0.954

Settings	fitness
B. subtilis 168 [4], first compound 0.02 µg/mL, partner 0.039 µg/mL	0.94
B. subtilis 168 [4], first compound 0.02 µg/mL, partner 0.078 µg/mL	0.818
B. subtilis 168 [4], first compound 0.02 µg/mL, partner 0.156 µg/mL	0.85
B. subtilis 168 [4], first compound 0.04 µg/mL, partner 0.039 µg/mL	0.824
B. subtilis 168 [4], first compound 0.04 µg/mL, partner 0.078 µg/mL	0.773
B. subtilis 168 [4], first compound 0.04 µg/mL, partner 0.156 µg/mL	0.792
B. subtilis 168 [4], first compound 0.08 µg/mL, partner 0.078 µg/mL	0.619
B. subtilis 168 [4], first compound 0.08 µg/mL, partner 0.156 µg/mL	0.635
S. pneumoniae D39V [3], first compound 0.0155 µg/mL, partner 0.65 µg/mL	0.969
S. pneumoniae D39V [3], first compound 0.0155 µg/mL, partner 1.3 µg/mL	0.922
S. pneumoniae D39V [3], first compound 0.0155 µg/mL, partner 2.6 µg/mL	0.903
S. pneumoniae D39V [3], first compound 0.031 µg/mL, partner 0.65 µg/mL	0.902
S. pneumoniae D39V [3], first compound 0.031 µg/mL, partner 1.3 µg/mL	0.831
S. pneumoniae D39V [3], first compound 0.031 µg/mL, partner 2.6 µg/mL	0.796
S. pneumoniae D39V [3], first compound 0.062 µg/mL, partner 0.65 µg/mL	0.885
S. pneumoniae D39V [3], first compound 0.062 µg/mL, partner 1.3 µg/mL	0.773
S. pneumoniae D39V [3], first compound 0.062 µg/mL, partner 2.6 µg/mL	0.732

C[C@H]1c2cccc(O)c2C(=O)C2=C(O)[C@]3(O)C(=O)C(C(N)=O)=C(O)[C@@H](N(C)C)[C@@H]3[C@@H](O)[C@@H]21 [Doxycycline] + CN(N=O)C(=O)N[C@@H](C=O)[C@@H](O)[C@H](O)[C@H](O)CO [Streptozotocin]
Settings	Bliss interaction score
B. subtilis 168 [2]	0.0094
S. aureus DSM 20231	0.0373
S. aureus Newman	0.0413
S. pneumoniae D39V [1]	-0.0474

fitness, S. pneumoniae D39V [3], one replicate
Settings	partner 1.2 µg/mL	partner 2.4 µg/mL	partner 4.8 µg/mL
first compound 0.003875 µg/mL	0.989	0.971	0.984
first compound 0.00775 µg/mL	0.926	0.913	0.933

Settings	fitness
B. subtilis 168 [4], first compound 0.02 µg/mL, partner 0.15 µg/mL	0.917
B. subtilis 168 [4], first compound 0.02 µg/mL, partner 0.3 µg/mL	0.97
B. subtilis 168 [4], first compound 0.02 µg/mL, partner 0.6 µg/mL	0.901
B. subtilis 168 [4], first compound 0.04 µg/mL, partner 0.15 µg/mL	0.773
B. subtilis 168 [4], first compound 0.04 µg/mL, partner 0.3 µg/mL	0.789
B. subtilis 168 [4], first compound 0.04 µg/mL, partner 0.6 µg/mL	0.786
B. subtilis 168 [4], first compound 0.08 µg/mL, partner 0.3 µg/mL	0.538
B. subtilis 168 [4], first compound 0.08 µg/mL, partner 0.6 µg/mL	0.531
S. pneumoniae D39V [3], first compound 0.0155 µg/mL, partner 1.2 µg/mL	0.919
S. pneumoniae D39V [3], first compound 0.0155 µg/mL, partner 2.4 µg/mL	0.896
S. pneumoniae D39V [3], first compound 0.0155 µg/mL, partner 4.8 µg/mL	0.914
S. pneumoniae D39V [3], first compound 0.031 µg/mL, partner 1.2 µg/mL	0.837
S. pneumoniae D39V [3], first compound 0.031 µg/mL, partner 2.4 µg/mL	0.847
S. pneumoniae D39V [3], first compound 0.031 µg/mL, partner 4.8 µg/mL	0.822
S. pneumoniae D39V [3], first compound 0.062 µg/mL, partner 1.2 µg/mL	0.754
S. pneumoniae D39V [3], first compound 0.062 µg/mL, partner 2.4 µg/mL	0.761
S. pneumoniae D39V [3], first compound 0.062 µg/mL, partner 4.8 µg/mL	0.71

C[C@H]1c2cccc(O)c2C(=O)C2=C(O)[C@]3(O)C(=O)C(C(N)=O)=C(O)[C@@H](N(C)C)[C@@H]3[C@@H](O)[C@@H]21 [Doxycycline] + CN[C@@H]1[C@H](O)[C@H](NC)[C@H]2O[C@@]3(O)C(=O)C[C@@H](C)O[C@H]3O[C@@H]2[C@H]1O [Spectinomycin]
Settings	Bliss interaction score
B. subtilis 168 [2]	-0.0339
S. aureus DSM 20231	-0.0389
S. aureus Newman	-0.0405
S. pneumoniae D39V [1]	-0.0375

fitness, S. pneumoniae D39V [3], one replicate
Settings	first compound 0.003875 µg/mL	first compound 0.00775 µg/mL	first compound 0.031 µg/mL	first compound 0.062 µg/mL
partner 4 µg/mL	0.971	0.908	–	–
partner 8 µg/mL	0.949	0.925	–	–
partner 16 µg/mL	0.804	0.834	0.768	0.673

fitness
Settings	partner 2 µg/mL	partner 4 µg/mL	partner 8 µg/mL	partner 16 µg/mL
B. subtilis 168 [4], first compound 0.02 µg/mL	0.909	0.881	0.835	–
B. subtilis 168 [4], first compound 0.04 µg/mL	0.824	0.828	0.712	–
B. subtilis 168 [4], first compound 0.08 µg/mL	0.546	–	0.402	–
S. pneumoniae D39V [3], first compound 0.0155 µg/mL	–	0.91	0.869	0.805
S. pneumoniae D39V [3], first compound 0.031 µg/mL	–	0.879	0.822	–
S. pneumoniae D39V [3], first compound 0.062 µg/mL	–	0.783	0.758	–

C[C@H]1c2cccc(O)c2C(=O)C2=C(O)[C@]3(O)C(=O)C(C(N)=O)=C(O)[C@@H](N(C)C)[C@@H]3[C@@H](O)[C@@H]21 [Doxycycline] + CN[C@@H]1[C@H](O[C@H]2[C@H](O[C@H]3[C@H](O)[C@@H](O)[C@H](N=C(N)N)[C@@H](O)[C@@H]3N=C(N)N)O[C@@H](C)[C@]2(O)C=O)O[C@@H](CO)[C@H](O)[C@H]1O [Streptomycin]
Settings	Bliss interaction score
B. subtilis 168 [2]	0.251
S. aureus DSM 20231	0.0508
S. aureus Newman	-0.016
S. pneumoniae D39V [1]	-0.0673

S. pneumoniae D39V [3], one replicate
Settings	fitness
first compound 0.003875 µg/mL, partner 2 µg/mL	0.955
first compound 0.003875 µg/mL, partner 4 µg/mL	≥ 1
first compound 0.003875 µg/mL, partner 8 µg/mL	0.977
first compound 0.00775 µg/mL, partner 2 µg/mL	0.928
first compound 0.00775 µg/mL, partner 4 µg/mL	0.952
first compound 0.00775 µg/mL, partner 8 µg/mL	0.937
first compound 0.0155 µg/mL, partner 16 µg/mL	0.741
first compound 0.031 µg/mL, partner 16 µg/mL	0.671
first compound 0.062 µg/mL, partner 16 µg/mL	0.57

fitness
Settings	partner 2 µg/mL	partner 4 µg/mL	partner 8 µg/mL
B. subtilis 168 [4], first compound 0.02 µg/mL	0.902	0.772	–
B. subtilis 168 [4], first compound 0.04 µg/mL	0.766	0.678	–
B. subtilis 168 [4], first compound 0.08 µg/mL	0.497	–	–
S. pneumoniae D39V [3], first compound 0.0155 µg/mL	0.9	0.895	0.891
S. pneumoniae D39V [3], first compound 0.031 µg/mL	0.866	0.859	0.837
S. pneumoniae D39V [3], first compound 0.062 µg/mL	0.72	0.714	0.735

C[C@H]1c2cccc(O)c2C(=O)C2=C(O)[C@]3(O)C(=O)C(C(N)=O)=C(O)[C@@H](N(C)C)[C@@H]3[C@@H](O)[C@@H]21 [Doxycycline] + COc1c(N2C[C@@H]3CCCN[C@@H]3C2)c(F)cc2c(=O)c(C(=O)O)cn(C3CC3)c12 [Moxifloxacin]
Settings	Bliss interaction score
B. subtilis 168 [2]	0.0361
S. aureus DSM 20231	0.0965
S. aureus Newman	0.036
S. pneumoniae D39V [1]	-0.0559

fitness, S. pneumoniae D39V [3], one replicate
Settings	first compound 0.003875 µg/mL	first compound 0.00775 µg/mL	first compound 0.031 µg/mL	first compound 0.062 µg/mL
partner 0.0037 µg/mL	0.939	0.881	0.692	0.352
partner 0.0075 µg/mL	0.952	0.894	0.806	0.679
partner 0.015 µg/mL	0.909	0.874	0.721	0.59

Settings	fitness
B. subtilis 168 [4], first compound 0.02 µg/mL, partner 0.0312 µg/mL	0.0633
B. subtilis 168 [4], first compound 0.02 µg/mL, partner 0.0625 µg/mL	0.0369
B. subtilis 168 [4], first compound 0.02 µg/mL, partner 0.125 µg/mL	0.0526
B. subtilis 168 [4], first compound 0.02 µg/mL, partner 2 µg/mL	0.0252
B. subtilis 168 [4], first compound 0.02 µg/mL, partner 4 µg/mL	0.0301
B. subtilis 168 [4], first compound 0.02 µg/mL, partner 8 µg/mL	0.061
B. subtilis 168 [4], first compound 0.04 µg/mL, partner 0.0312 µg/mL	0.0435
B. subtilis 168 [4], first compound 0.04 µg/mL, partner 0.0625 µg/mL	0.0347
B. subtilis 168 [4], first compound 0.04 µg/mL, partner 0.125 µg/mL	0.0489
B. subtilis 168 [4], first compound 0.04 µg/mL, partner 2 µg/mL	0.0204
B. subtilis 168 [4], first compound 0.04 µg/mL, partner 4 µg/mL	0.013
B. subtilis 168 [4], first compound 0.04 µg/mL, partner 8 µg/mL	0.0253
B. subtilis 168 [4], first compound 0.08 µg/mL, partner 0.0625 µg/mL	0.03
B. subtilis 168 [4], first compound 0.08 µg/mL, partner 0.125 µg/mL	0.0215
B. subtilis 168 [4], first compound 0.08 µg/mL, partner 2 µg/mL	0.0234
B. subtilis 168 [4], first compound 0.08 µg/mL, partner 4 µg/mL	0.0247
B. subtilis 168 [4], first compound 0.08 µg/mL, partner 8 µg/mL	0.0278
S. pneumoniae D39V [3], first compound 0.0155 µg/mL, partner 0.0037 µg/mL	0.791
S. pneumoniae D39V [3], first compound 0.0155 µg/mL, partner 0.005 µg/mL	0.918
S. pneumoniae D39V [3], first compound 0.0155 µg/mL, partner 0.0075 µg/mL	0.838
S. pneumoniae D39V [3], first compound 0.0155 µg/mL, partner 0.01 µg/mL	0.919
S. pneumoniae D39V [3], first compound 0.0155 µg/mL, partner 0.015 µg/mL	0.857
S. pneumoniae D39V [3], first compound 0.0155 µg/mL, partner 0.02 µg/mL	0.834
S. pneumoniae D39V [3], first compound 0.031 µg/mL, partner 0.005 µg/mL	0.886
S. pneumoniae D39V [3], first compound 0.031 µg/mL, partner 0.01 µg/mL	0.896
S. pneumoniae D39V [3], first compound 0.031 µg/mL, partner 0.02 µg/mL	0.783
S. pneumoniae D39V [3], first compound 0.062 µg/mL, partner 0.005 µg/mL	0.807
S. pneumoniae D39V [3], first compound 0.062 µg/mL, partner 0.01 µg/mL	0.856
S. pneumoniae D39V [3], first compound 0.062 µg/mL, partner 0.02 µg/mL	0.807
